From ChEMBL document CHEMBL4837269, “Identification of 6-Hydroxypyrimidin-4(1H)-one-3-carboxamides as Potent and Orally Active APJ Receptor Agonists” (ACS Med Chem Lett, 2021)

Legend:
[1] = molecular target: T1, Apelin receptor (Homo sapiens, UniProt P35414); assay: Agonist activity at human APJ receptor expressed in HEK293T cells assessed as compound stimulated inhibition of forskolin stimulated cAMP production incubated for 30 mins by HTRF assay; type: functional, cell-based
T1 sequence (P35414 whole entry): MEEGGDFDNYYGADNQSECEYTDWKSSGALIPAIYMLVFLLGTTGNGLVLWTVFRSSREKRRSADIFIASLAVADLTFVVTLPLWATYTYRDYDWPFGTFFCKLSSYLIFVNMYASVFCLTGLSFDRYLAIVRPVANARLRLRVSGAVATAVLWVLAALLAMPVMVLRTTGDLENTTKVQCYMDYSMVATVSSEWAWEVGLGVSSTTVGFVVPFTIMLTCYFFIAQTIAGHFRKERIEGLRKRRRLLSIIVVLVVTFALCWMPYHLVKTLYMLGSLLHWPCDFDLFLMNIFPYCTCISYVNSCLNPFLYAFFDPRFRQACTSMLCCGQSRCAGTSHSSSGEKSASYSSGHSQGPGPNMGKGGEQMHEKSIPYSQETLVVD

[2] = molecular target: T2, Apelin receptor (Rattus norvegicus, UniProt Q9JHG3); assay: Agonist activity at rat APJ receptor expressed in HEK293T cells assessed as compound stimulated inhibition of forskolin stimulated cAMP production incubated for 30 mins by HTRF assay; type: functional, cell-based
T2 sequence (Q9JHG3 whole entry): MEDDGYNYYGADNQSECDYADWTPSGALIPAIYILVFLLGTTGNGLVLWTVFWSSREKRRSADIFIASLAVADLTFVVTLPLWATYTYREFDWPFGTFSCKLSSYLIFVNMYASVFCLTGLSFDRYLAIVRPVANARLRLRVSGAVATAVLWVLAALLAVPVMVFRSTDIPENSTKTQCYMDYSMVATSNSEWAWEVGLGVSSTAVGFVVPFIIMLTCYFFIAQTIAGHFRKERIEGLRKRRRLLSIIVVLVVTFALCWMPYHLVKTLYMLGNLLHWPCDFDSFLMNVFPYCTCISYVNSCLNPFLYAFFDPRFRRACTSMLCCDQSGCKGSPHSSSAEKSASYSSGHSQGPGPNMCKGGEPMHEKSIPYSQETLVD

[3] = Metabolic stability in human liver microsomes assessed as parent compound remaining measured after 10 mins in presence of NADPH; type: ADME, Microsome; details: for remaining at 10 min: liver microsomes, read-out: Stabilty; for percent parent compound remaining: microsomes, 10 min
[4] = Metabolic stability in rat liver microsomes assessed as parent compound remaining measured after 10 mins in presence of NADPH; type: ADME, Microsome; details: for remaining at 10 min: liver microsomes, read-out: Stabilty; for Stabilty: microsomes, 10 min
[5] = Permeability of the compound at pH 5.5 by PAMPA assay; type: ADME; details: for Papp: read-out: permeability
[6] = Permeability of the compound at pH 7.4 by PAMPA assay; type: ADME; details: for Papp: read-out: permeability
[7] = Cmax in Sprague-Dawley rat at 1 mg/kg, po via gavage measured after 48 hrs by LC/MS/MS analysis; type: ADME, organism-based; design: route oral, time 48 hrs, dose 1 mg/kg; details: in vivo
[8] = AUC(0 to 24 hrs) in Sprague-Dawley rat at 1 mg/kg, po via gavage measured after 48 hrs by LC/MS/MS analysis; type: ADME, organism-based; design: route oral, dose 1 mg/kg, time 48 hrs; details: in vivo
[9] = Half life in Sprague-Dawley rat at 1 mg/kg, po via gavage measured after 48 hrs by LC/MS/MS analysis; type: ADME, organism-based; details: in vivo
[10] = test system: Rattus norvegicus; assay: Hemodynamic activity in isoflurane-anesthetized Sprague-Dawley rat model of acute pressure-volume loop assessed as change in cardiac output at 10 microg/kg/min administered as iv infusion for 15 mins (reference value: 2.3 +/- 2.1 %); type: functional; details: dose 10 µg/kg/min, 0.25 h
[11] = test system: Rattus norvegicus; assay: Hemodynamic activity in isoflurane-anesthetized Sprague-Dawley rat model of acute pressure-volume loop assessed as change in stroke volume at 10 microg/kg/min administered as iv infusion for 15 mins (reference value: -0.6 %); type: functional; details: dose 10 µg/kg/min, 0.25 h
[12] = test system: Rattus norvegicus; assay: Hemodynamic activity in isoflurane-anesthetized Sprague-Dawley rat model of acute pressure-volume loop assessed as change in dp/dT at 10 microg/kg/min administered as iv infusion for 15 mins (reference value: 3.3 +/- […]); type: functional; details: dose 10 µg/kg/min, 0.25 h
[13] = test system: Rattus norvegicus; assay: Hemodynamic activity in isoflurane-anesthetized Sprague-Dawley rat model of acute pressure-volume loop assessed as change in heart rate at 10 microg/kg/min administered as iv infusion for 15 mins (reference value: 3 +/- 1.6 %); type: functional; details: dose 10 µg/kg/min, 0.25 h
[14] = test system: Rattus norvegicus; assay: Hemodynamic activity in isoflurane-anesthetized Sprague-Dawley rat model of acute pressure-volume loop assessed as change in blood pressure at 10 microg/kg/min administered as iv infusion for 15 mins (reference value: -0.2 %); type: functional; details: dose 10 µg/kg/min, 0.25 h
[15] = Protein binding in Sprague-Dawley rat plasma; type: ADME, cell-free; details: read-out: PPB (converted)
[16] = Free drug concentration in Sprague-Dawley rat plasma; type: ADME, cell-free

| SMILES | EC50 [1] | EC50 [2] | remaining at 10 min [3] | remaining at 10 min [4] | Papp [5] | Papp [6] | other results |
| --- | --- | --- | --- | --- | --- | --- | --- |
| CCCCc1nc(=O)c(C(=O)N2CC[C@H](c3ccccc3)C2)c(O)n1-c1c(OC)cccc1OC | – | 0.27 nM | 85% | 25% | 52.3 ×10⁻⁶ cm/s | 1.2 ×10⁻⁶ cm/s | – |
| CCCCc1[nH]c(=O)c(C(=O)N(C)CCc2ccc(Cl)cc2)c(O)c1-c1c(OC)cccc1OC | 9.3 nM | 10 nM | – | – | – | – | – |
| CCOCc1[nH]c(=O)c(-c2nnc(Cc3ccc(C)cn3)o2)c(O)c1-c1c(OC)cccc1OC | 0.023 nM | 0.024 nM | – | – | – | – | – |
| CCCCc1[nH]c(=O)c(C(=O)NCC)c(O)c1-c1c(OC)cccc1OC | > 30000 nM | > 30000 nM | – | – | – | – | – |
| CCCCc1nc(=O)c(C(=O)N2CC[C@H](c3ccc(Cl)cn3)C2)c(O)n1-c1c(OC)cccc1OC | 0.032 nM | 0.063 nM | 100% | 35% | – | – | – |
| CCCCc1[nH]c(=O)c(C(=O)N2CC[C@@H](c3ccccc3)C2)c(O)c1-c1c(OC)cccc1OC | 1.8 nM | 3.1 nM | 100% | 69% | 63 ×10⁻⁶ cm/s | 7.3 ×10⁻⁶ cm/s | – |
| CCOCc1nc(=O)c(C(=O)N2CC[C@H](c3ccccc3)C2)c(O)n1-c1c(OC)cccc1OC | 0.44 nM | 0.61 nM | – | – | 6.4 ×10⁻⁶ cm/s | 0.3 ×10⁻⁶ cm/s | – |
| CCCCc1nc(=O)c(C(=O)N2CCC(c3ccccn3)C2)c(O)n1-c1c(OC)cccc1OC (stereo in doubt; 11a) | 0.17 nM | 0.37 nM | 82% | 68% | 4.2 ×10⁻⁶ cm/s | – | – |
| CCCCc1nc(=O)c(C(=O)N2CCC(c3ccncc3)C2)c(O)n1-c1c(OC)cccc1OC (stereo in doubt; 13a) | 1.5 nM | 2.1 nM | 93% | 83% | – | 0.3 ×10⁻⁶ cm/s | permeability [5]: 0.9 ×10⁻⁶ cm/s |
| CCCCc1nc(=O)c(C(=O)N2CCC(c3ccncc3)C2)c(O)n1-c1c(OC)cccc1OC (stereo in doubt; 13b) | 2.7 nM | 4 nM | – | – | – | – | percent parent compound remaining [3]: 90%; Stabilty [4]: 80%; permeability [5]: 1.9 ×10⁻⁶ cm/s; permeability [6]: 0.5 ×10⁻⁶ cm/s |

The next lines start with results.

| EC50 [1] | EC50 [2] | remaining at 10 min [3] | remaining at 10 min [4] | Papp [5] | Papp [6] | SMILES | other results |
| --- | --- | --- | --- | --- | --- | --- | --- |
| 120 nM | 150 nM | – | – | – | – | CCCCc1[nH]c(=O)c(C(=O)N(CCC)Cc2ccccc2)c(O)c1-c1c(OC)cccc1OC | – |
| 1100 nM | 4800 nM | – | – | – | – | CCCCc1[nH]c(=O)c(C(=O)NCc2ccccc2)c(O)c1-c1c(OC)cccc1OC | – |
| 1 nM | 1.8 nM | 99% | 73% | 84 ×10⁻⁶ cm/s | 1.8 ×10⁻⁶ cm/s | CCCCc1[nH]c(=O)c(C(=O)N2CC[C@H](c3ccccc3)C2)c(O)c1-c1c(OC)cccc1OC | – |
| 0.027 nM | 0.035 nM | 100% | 43% | – | – | CCCCc1nc(=O)c(C(=O)N2CC[C@@H](c3ccc(Cl)cn3)C2)c(O)n1-c1c(OC)cccc1OC | Cmax [7]: 3.2 µM; AUC(0-t) at 48 h [8]: 1.9 µM·h; half-life [9]: 3.2 h; Activity [10]: 11.7%; Activity [11]: 67%; Activity [12]: 9.1%; Activity [13]: 4.6%; Activity [14]: -2.8%; fraction unbound [15]: 0.022; Cp(f) [16]: 0.0064 µM |
| 1100 nM | 1200 nM | – | – | – | – | CCCCc1[nH]c(=O)c(C(=O)N(C)C)c(O)c1-c1c(OC)cccc1OC | – |
| – | 0.34 nM | 97% | 26% | 32.5 ×10⁻⁶ cm/s | 2.3 ×10⁻⁶ cm/s | CCCCc1nc(=O)c(C(=O)N2CC[C@@H](c3ccccc3)C2)c(O)n1-c1c(OC)cccc1OC | – |
| 0.15 nM | 0.17 nM | 97% | 7% | 30 ×10⁻⁶ cm/s | 7.4 ×10⁻⁶ cm/s | CCCCc1nc(=O)c(C(=O)N2CCC(c3ccc(Cl)cc3)C2)c(O)n1-c1c(OC)cccc1OC (stereo in doubt; 10a) | – |
| 0.24 nM | 0.31 nM | – | – | – | – | CCCCc1nc(=O)c(C(=O)N2CCC(c3ccc(Cl)cc3)C2)c(O)n1-c1c(OC)cccc1OC (stereo in doubt; 10b) | percent parent compound remaining [3]: 90%; Stabilty [4]: 8%; permeability [5]: 38 ×10⁻⁶ cm/s; permeability [6]: 6.3 ×10⁻⁶ cm/s |
| 0.12 nM | 0.15 nM | – | – | – | 0.6 ×10⁻⁶ cm/s | CCCCc1nc(=O)c(C(=O)N2CCC(c3ccccn3)C2)c(O)n1-c1c(OC)cccc1OC (stereo in doubt; 11b) | Stabilty [4]: 62%; permeability [5]: 7.8 ×10⁻⁶ cm/s |
| 0.29 nM | 0.33 nM | 82% | 65% | 2.3 ×10⁻⁶ cm/s | – | CCCCc1nc(=O)c(C(=O)N2CCC(c3cccnc3)C2)c(O)n1-c1c(OC)cccc1OC (stereo in doubt; 12a) | – |
| 0.3 nM | 0.4 nM | – | – | – | 0.1 ×10⁻⁶ cm/s | CCCCc1nc(=O)c(C(=O)N2CCC(c3cccnc3)C2)c(O)n1-c1c(OC)cccc1OC (stereo in doubt; 12b) | percent parent compound remaining [3]: 89%; Stabilty [4]: 70%; permeability [5]: 2.1 ×10⁻⁶ cm/s |
